According to US20230250060A1 (IFM Due, Inc., priority 2022, published 2023):

Biological target: T1, STING (Homo sapiens, UniProt Q86WV6, G230A/H232R/R293Q/R71H)
T1 construct: host or cells: THP1-Dual KO-IFNAR2 cells
Experiment: STING reporter assay (luciferase) in THP1-Dual KO-IFNAR2 cells stimulated with 2′3′cGAMP
Format: cell-based
Conditions: 2′3′cGAMP 15 μM final, 24 h, luciferase reporter activity, read-out: Pharmaron, THP1_IFNAR2 STING 24 h Luci Normalized: GeoMean EC50
Protocol: STING pathway activation by the compounds described herein was measured using TTIP1-Dual™ cells (KO-IFNAR2).
TTIP1-Dual™ KO-IFNAR2 Cells (obtained from invivogen) were maintained in RPMI, 10% FCS, 5 ml P/S, 2 mM L-glut, 10 mM Hepes, and 1 mM sodium pyruvate. Compounds were spotted in empty 384 well tissue culture plates (Greiner 781182) by Echo for a final concentration of 0.0017-100 μM. Cells were plated into the TC plates at 40 μL per well, 2×10E6 cells/mL. For activation with STING ligand, 2′3′cGAMP (MW 718.38, obtained from Invivogen), was prepared in Optimem media.
The following solutions were prepared for each 1×384 plate: • Solution A: 2 mL Optimem with one of the following stimuli: • […] • Solution B: 2 mL Optimem with […] Lipofectamine 2000→Incubate 5 min at RT
2 mL of solution A and 2 ml Solution B was mixed and incubated for 20 min at room temperature (RT). 20 μL of transfection solution (A+B) was added on top of the plated cells, with a final 2′3′cGAMP concentration of 15 μM. The plates were then centrifuged immediately at 340 g for 1 minute, after which they were incubated at 37° C., 5% CO2, >98% humidity for 24 h. Luciferase reporter activity was then measured. EC50 values were calculated by using standard methods known in the art.
Luciferase reporter assay: 10 μL of supernatant from the assay was transferred to white 384-plate with flat bottom and squared wells. One pouch of QUANTI-Luc™ Plus was dissolved in 25 mL of water. 100 μL of QLC Stabilizer per 25 mL of QUANTI-Luc™ Plus solution was added. 50 μL of QUANTI-Luc™ Plus/QLC solution per well was then added. Luminescence was measured on a Platereader (e.g., Spectramax I3X (Molecular Devices GF3637001)).
Luciferase reporter activity was then measured. EC50 values were calculated by using standard methods known in the art.

T1 sequence (Q86WV6 whole entry R71H/G230A/H232R/R293Q): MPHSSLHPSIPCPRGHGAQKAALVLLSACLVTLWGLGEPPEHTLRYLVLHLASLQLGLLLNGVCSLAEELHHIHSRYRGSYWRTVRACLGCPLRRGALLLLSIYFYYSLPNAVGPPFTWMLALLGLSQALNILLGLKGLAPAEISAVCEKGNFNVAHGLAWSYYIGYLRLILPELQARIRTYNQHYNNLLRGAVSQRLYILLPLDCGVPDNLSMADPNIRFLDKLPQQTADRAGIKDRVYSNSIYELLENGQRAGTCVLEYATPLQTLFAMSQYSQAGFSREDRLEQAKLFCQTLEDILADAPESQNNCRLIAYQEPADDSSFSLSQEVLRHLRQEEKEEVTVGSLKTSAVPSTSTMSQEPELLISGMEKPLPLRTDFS

Row | SMILES | EC50
1 | O=C(Nc1c[nH]c2ccc(OCC[C@@H]3C[C@@H]4CN(CC(F)(F)F)C[C@@H]4C3)cc12)C1CC2(CCC2)C1 [Compound 157, N-(5-(2-((3aR,5r,6aS)-2-(2,2,2-trifluoroethyl)octahydrocyclopenta[c]pyrrol-5-yl)ethoxy)-1H-indol-3-yl)spiro[3.3]hexane-2-carboxamide] | 200 to 1000 nM
2 | O=C(Nc1c[nH]c2ccc(O[C@H]3C[C@@H](c4ccc(C(F)(F)F)cc4)C3)cc12)c1ccncc1 [Compound 166, N-(5-((1s,3s)-3-(4-(trifluoromethyl)phenyl)cyclobutoxy)-1H-indol-3-yl)isonicotinamide] | 200 to 1000 nM
3 | Cc1oncc1C(=O)Nc1c[nH]c2ccc(O[C@H]3C[C@@H](c4ccc(C(F)(F)F)cc4)C3)cc12 [Compound 176, 5-methyl-N-(5-((1s,3s)-3-(4-(trifluoromethyl)phenyl)cyclobutoxy)-1H-indol-3-yl)isoxazole-4-carboxamide] | 5000 to 100000 nM
4 | O=C(Nc1c[nH]c2ccc(Oc3ccccc3)cc12)c1cnn(Cc2ccc(C(F)(F)F)cc2)c1 [Compound 246, N-(5-phenoxy-1H-indol-3-yl)-1-(4-(trifluoromethyl)benzyl)-1H-pyrazole-4-carboxamide] | 40 to 200 nM
5 | Cn1ccnc1C(=O)Nc1c[nH]c2ccc(CCOc3ccc(C(F)(F)F)cc3)cc12 [Compound 143, 1-methyl-N-(5-(2-(4-(trifluoromethyl)phenoxy)ethyl)-1H-indol-3-yl)-1H-imidazole-2-carboxamide] | 40 to 200 nM
6 | O=C(Nc1c[nH]c2ccc(OCCc3ccc(C(F)(F)F)cc3)cc12)c1ccncc1 [Compound 121, N-(5-(4-(trifluoromethyl)phenethoxy)-1H-indol-3-yl)isonicotinamide] | 200 to 1000 nM
7 | Cn1ccnc1C(=O)Nc1c[nH]c2ccc(O[C@H]3C[C@H](c4ccc(C(F)(F)F)cc4)C3)cc12 [Compound 220, 1-methyl-N-{5-[(1R,3R)-3-[4-(trifluoromethyl)phenyl]cyclobutoxy]-1H-indol-3-yl}-1H-imidazole-2-carboxamide] | 200 to 1000 nM
8 | O=C(CC1CC1)Nc1c[nH]c2ccc(O[C@H]3C[C@@H](c4ccc(C(F)(F)F)cc4)C3)cc12 [Compound 102, 2-cyclopropyl-N-(5-((1s,3s)-3-(4-(trifluoromethyl)phenyl)cyclobutoxy)-1H-indol-3-yl)acetamide] | 40 to 200 nM
9 | O=C(Nc1c[nH]c2ccc(OCCc3ccc(C(F)(F)F)cc3)cc12)C12CC(C1)C2 [Compound 131, N-(5-(4-(trifluoromethyl)phenethoxy)-1H-indol-3-yl)bicyclo[1.1.1]pentane-1-carboxamide] | 200 to 1000 nM
10 | O=C(Nc1c[nH]c2ccc(COCc3ccc(C(F)(F)F)cc3)cc12)C12CC(F)(C1)C2 [Compound 134, 3-fluoro-N-(5-(((4-(trifluoromethyl)benzyl)oxy)methyl)-1H-indol-3-yl)bicyclo[1.1.1]pentane-1-carboxamide] | 200 to 1000 nM
11 | O=C(Nc1c[nH]c2ccc(O[C@H]3C[C@H](c4ccc(C(F)(F)F)cc4)C3)cc12)c1cscn1 [Compound 239, N-(5-((1R,3R)-3-(4-(trifluoromethyl)phenyl)cyclobutoxy)-1H-indol-3-yl)thiazole-4-carboxamide] | 40 to 200 nM
12 | O=C(Nc1c[nH]c2ccc(OCc3ccc(C(F)(F)F)cc3)cc12)C12CC(C1)C2 [Compound 164, N-(5-((4-(trifluoromethyl)benzyl)oxy)-1H-indol-3-yl)bicyclo[1.1.1]pentane-1-carboxamide] | 200 to 1000 nM
13 | Cc1noc(C)c1C(=O)Nc1c[nH]c2ccc(OCCc3ccc(C(F)(F)F)cc3)cc12 [Compound 112, 3,5-dimethyl-N-(5-(4-(trifluoromethyl)phenethoxy)-1H-indol-3-yl)isoxazole-4-carboxamide] | 200 to 1000 nM
14 | O=C(Nc1c[nH]c2ccc(CCOc3ccc(C(F)(F)F)cc3)cc12)C1CC12CCC2 (stereo not shown) [Compound 104, N-(5-(2-(4-(trifluoromethyl)phenoxy)ethyl)-1H-indol-3-yl)spiro[2.3]hexane-1-carboxamide] | 200 to 1000 nM
15 | CC12CC(C(=O)Nc3c[nH]c4ccc(OCc5ccc(C(F)(F)F)cc5)cc34)(C1)C2 [Compound 163, 3-methyl-N-(5-((4-(trifluoromethyl)benzyl)oxy)-1H-indol-3-yl)bicyclo[1.1.1]pentane-1-carboxamide] | 200 to 1000 nM
16 | Cn1nccc1C(=O)Nc1c[nH]c2ccc(OCC[C@@H]3C[C@@H]4CN(CC(F)(F)F)C[C@@H]4C3)cc12 [Compound 181, 1-methyl-N-(5-(2-((3aR,5r,6aS)-2-(2,2,2-trifluoroethyl)octahydrocyclopenta[c]pyrrol-5-yl)ethoxy)-1H-indol-3-yl)-1H-pyrazole-5-carboxamide] | 200 to 1000 nM
17 | Cc1noc(C)c1C(=O)Nc1c[nH]c2ccc(OCC[C@@H]3C[C@@H]4CN(CC(F)(F)F)C[C@@H]4C3)cc12 [Compound 189, 3,5-dimethyl-N-(5-(2-((3aR,5r,6aS)-2-(2,2,2-trifluoroethyl)octahydrocyclopenta[c]pyrrol-5-yl)ethoxy)-1H-indol-3-yl)isoxazole-4-carboxamide] | 200 to 1000 nM
18 | O=C(Nc1c[nH]c2ccc(CCOc3ccc(C(F)(F)F)cc3)cc12)C1CC12CC2 (stereo not shown) [Compound 200, N-(5-(2-(4-(trifluoromethyl)phenoxy)ethyl)-1H-indol-3-yl)spiro[2.2]pentane-1-carboxamide] | 200 to 1000 nM
19 | O=C(Nc1c[nH]c2ccc(O[C@H]3C[C@@H](c4ccc(C(F)(F)F)cc4)C3)cc12)C12CC(O)(C1)C2 [Compound 204, 3-hydroxy-N-(5-(cis-3-(4-(trifluoromethyl)phenyl)cyclobutoxy)-1H-indol-3 yl)bicyclo[1.1.1]pentane-1-carboxamide] | 1000 to 5000 nM
20 | O=C(Nc1c[nH]c2ccc(CCOc3ccc(C(F)(F)F)cc3)cc12)c1ccn[nH]1 [Compound 160, N-(5-(2-(4-(trifluoromethyl)phenoxy)ethyl)-1H-indol-3-yl)-1H-pyrazole-5-carboxamide] | 200 to 1000 nM
21 | O=C(Nc1c[nH]c2ccc(OCC[C@@H]3C[C@@H]4CN(CC(F)(F)F)C[C@@H]4C3)cc12)c1ccccn1 [Compound 183, N-(5-(2-((3aR,5r,6aS)-2-(2,2,2-trifluoroethyl)octahydrocyclopenta[c]pyrrol-5-yl)ethoxy)-1H-indol-3-yl)picolinamide] | 1000 to 5000 nM
22 | O=C(Nc1c[nH]c2ccc(OCC[C@@H]3C[C@@H]4CN(CC(F)(F)F)C[C@@H]4C3)cc12)C1C2COCC21 (stereo partly drawn) [Compound 210, N-(5-(2-((3aR,5r,6aS)-2-(2,2,2-trifluoroethyl)octahydrocyclopenta[c]pyrrol-5-yl)ethoxy)-1H-indol-3-yl)-3-oxabicyclo[3.1.0]hexane-6-carboxamide] | 200 to 1000 nM
23 | O=C(Nc1c[nH]c2ccc(OCC[C@@H]3C[C@@H]4CN(CC(F)(F)F)C[C@@H]4C3)cc12)C1CC12CC2 (stereo partly drawn) [Compound 158, N-(5-(2-((3aR,5r,6aS)-2-(2,2,2-trifluoroethyl)octahydrocyclopenta[c]pyrrol-5-yl)ethoxy)-1H-indol-3-yl)spiro[2.2]pentane-1-carboxamide] | 1000 to 5000 nM
24 | O=C(Nc1c[nH]c2ccc(CCOc3ccc(C(F)(F)F)cc3)cc12)c1ncco1 [Compound 145, N-(5-(2-(4-(trifluoromethyl)phenoxy)ethyl)-1H-indol-3-yl)oxazole-2-carboxamide] | 200 to 1000 nM
25 | O=C(Nc1c[nH]c2ccc(O[C@H]3C[C@@H](c4ccc(C(F)(F)F)cc4)C3)cc12)c1ccn[nH]1 [Compound 167, N-(5-((1s,3s)-3-(4-(trifluoromethyl)phenyl)cyclobutoxy)-1H-indol-3-yl)-1H-pyrazole-5-carboxamide] | 40 to 200 nM
26 | O=C(Nc1c[nH]c2ccc(O[C@H]3C[C@H](c4ccc(C(F)(F)F)cc4)C3)cc12)C12CC(F)(C1)C2 [Compound 133, 3-fluoro-N-(5-((1r,3r)-3-(4-(trifluoromethyl)phenyl)cyclobutoxy)-1H-indol-3-yl)bicyclo[1.1.1]pentane-1-carboxamide] | 40 to 200 nM
27 | O=C(Nc1c[nH]c2ccc(OCC[C@@H]3C[C@@H]4CN(CC(F)(F)F)C[C@@H]4C3)cc12)C1CC2C(C1)C2(F)F (stereo partly drawn) [Compound 208, 6,6-difluoro-N-(5-(2-((3aR,5r,6aS)-2-(2,2,2-trifluoroethyl)octahydrocyclopenta[c]pyrrol-5-yl)ethoxy)-1H-indol-3-yl)bicyclo[3.1.0]hexane-3-carboxamide] | 200 to 1000 nM
28 | O=C(Nc1c[nH]c2ccc(OCCc3ccc(C(F)(F)F)cc3)cc12)c1cscn1 [Compound 114, N-(5-(4-(trifluoromethyl)phenethoxy)-1H-indol-3-yl)thiazole-4-carboxamide] | 200 to 1000 nM
